Test results as given in patent US10159265B2, “Feed composition for reducing ruminant methanogenesis” (priority 2012, dated 2018).
Marks after values point to notes of the source that are not given here.

What was measured:
[1] = tested on: "in vitro" ruminal fluid cultures; assay: Ammonia (N-NH3) concentration in "in vitro" ruminal fluid cultures; format: cell-based, calves; conditions: 72 h
[2] = tested on: Streptococcus bovis; assay: qPCR relative quantification of Streptococcus bovis; format: cell-based; conditions: 12 hours of incubation
[3] = tested on: "in vitro" ruminal fluid cultures; assay: Ammonia (N-NH3) concentration in "in vitro" ruminal fluid cultures; format: cell-based, calves
[4] = tested on: ruminal bacteria; assay: Bacterial DNA concentration by qPCR; format: cell-based, calves; conditions: 12 hours of incubation
[5] = tested on: "in vitro" ruminal fluid cultures; assay: Volatile fatty acid concentration and molar proportions in "in vitro" ruminal fluid cultures; format: cell-based, calves
[6] = tested on: methanogenic (archea) populations; assay: Methane production in "in vitro" rumen fluid culture; format: cell-based, calves; set-up: Average methane production / Accumulated methane production / Methane production / Cumulative methane production: unit not given here; conditions: Exp 1
Method in brief: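 Rumen fluid from cannulated calves on a 90:10 concentrate ration incubated anaerobically at 39° C with flavonoids, 600 mg concentrate and 60 mg barley straw substrate in 10 ml rumen fluid plus 40 ml incubation medium. Gas pressure read at 2–48 h; triplicates in two batches, with methane share of total biogas assessed.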

[7] = tested on: "in vitro" ruminal fluid culture; assay: Lactate concentration in "in vitro" ruminal fluid culture; format: cell-based, calves; conditions: 12 hours of incubation
[8] = tested on: Megasphaera elsdenii; assay: qPCR relative quantification of Megasphaera elsdenii; format: cell-based; conditions: 12 hours of incubation
[9] = tested on: Selenomonas ruminantium; assay: qPCR relative quantification of Selenomonas ruminantium; format: cell-based; conditions: 12 hours of incubation
[10] = tested on: "in vitro" rumen fluid culture; assay: Biogas production in "in vitro" rumen fluid culture (pressure meter); format: cell-based, calves; set-up: Average biogas production / Cumulative biogas production / Biogas production: unit not given here; conditions: Exp 1
[11] = average over doses and incubation times

With `C[C@@H]1O[C@@H](OC[C@H]2O[C@@H](Oc3cc(O)c4c(c3)O[C@H](c3ccc(O)cc3)CC4=O)[C@H](O)[C@@H](O)[C@@H]2O)[C@H](O)[C@H](O)[C@H]1O` [Isonaringin, isonaringin] the N-NH3 concentration [1] was 322.53 mg/L, the “Relative Quantification 2^(ΔΔCt) S. bovis” value [2] was 0.46 and the N-NH3 concentration ([3]; 0 h (initial constant value)) was 149.99 mg/L. The N-NH3 concentration ([3]; 12 h) was 165.46 mg/L, the “N-NH3 concentration, average (M)” value ([3]; average over incubation times) was 212.66 mg/L and the “Bacteria DNA” value [4] was 16.18 ^ab μg/ml. For the same compound, the “% Acetate, molar ratio” value ([5]; 0 h) was 62.51 mol/100 mol, the “% Butyrate, molar ratio” value ([5]; 0 h) was 9.07 mol/100 mol and the “% Propionate, molar ratio” value ([5]; 0 h) was 20.03 mol/100 mol. For the same compound, the “A/P rate (acetate/propionate)” value ([5]; 0 h) was 3.12, the VFA concentration ([5]; 0 h (initial constant value)) was 13.78 mmol/L and the “% Acetate, molar ratio” value ([5]; 12 h) was 53.94 mol/100 mol. The “% Butyrate, molar ratio” value ([5]; 12 h) was 10.31 mol/100 mol, the “% Propionate, molar ratio” value ([5]; 12 h) was 30.20 mol/100 mol and the “A/P rate (acetate/propionate)” value ([5]; 12 h) was 1.79. The VFA concentration ([5]; 12 h) was 36.49 mmol/L, the “% Acetate, molar ratio” value ([5]; 72 h) was 55.34 mol/100 mol and the “% Butyrate, molar ratio” value ([5]; 72 h) was 10.24 mol/100 mol. For the same compound, the “% Propionate, molar ratio” value ([5]; 72 h) was 26.94 mol/100 mol, the “A/P rate (acetate/propionate)” value ([5]; 72 h) was 2.06 and the VFA concentration ([5]; 72 h) was 52.26 mmol/L. The “% Acetate, molar ratio, average (μ)” value ([5]; average over incubation times) was 57.26 mol/100 mol, the “% Butyrate, molar ratio, average (μ)” value ([5]; average over incubation times) was 9.87 ^ab mol/100 mol and the “% Propionate, molar ratio, average (M)” value ([5]; average over incubation times) was 25.72 ^b mol/100 mol. The “VFA concentration, average (μ)” value ([5]; average over incubation times) was 34.18 mmol/L, the “% Propionate, molar ratio, average (M)” value ([5]; average over incubation times, listed as isonaringin) was “improved” and the Accumulated methane production ([6]; 12 h) was 19.84. For the same compound, the “Proportion of methane in the produced biogas” value (from here on “Proportion of methane”) ([6]; 12 h) was 10.68, the Accumulated methane production ([6]; 24 h) was 24.94 and the “Proportion of methane” value ([6]; 24 h) was 13.56. The Accumulated methane production ([6]; 48 h) was 30.81, the “Proportion of methane” value ([6]; 48 h) was 16.79 and the Accumulated methane production ([6]; 72 h) was 34.08. The “Proportion of methane” value ([6]; 72 h) was 16.89, the Average methane production [6, 11] was 27.42^de and the “Proportion of methane” value [6, 11] was 14.48^bc. For the same compound, the Average methane production ([6]; average over doses and incubation times, listed as isonaringin) was “decreased”, the Methane production ([6]; dose 1, 0.2 g/kg DM) was 27.40 and the “Proportion of methane” value ([6]; dose 1, 0.2 g/kg DM) was 14.53. For the same compound, the Methane production ([6]; dose 2, 0.5 g/kg DM) was 27.43, the “Proportion of methane” value ([6]; dose 2, 0.5 g/kg DM) was 14.43 and the Lactate [7] was 92.4 mg/L. The “Relative Quantification 2^(ΔΔCt) M. elsdenii” value [8] was 1.08 ^ab, the “Relative Quantification 2^(ΔΔCt) S. ruminantium” value [9] was 0.86 and the Cumulative biogas production ([10]; 12 h incubation) was 185.58. For the same compound, the Cumulative biogas production ([10]; 24 h incubation) was 223.38, the Cumulative biogas production ([10]; 48 h incubation) was 258.85 and the Cumulative biogas production ([10]; 72 h incubation) was 278.66. It also gave a Biogas production ([10]; dose 1, 0.2 g/kg DM) of 235.13 and a Biogas production ([10]; dose 2, 0.5 g/kg DM) of 238.1.
